Assay results taken from US11339175B2, “Thiol-based fluorescent probe for reactive species” (The Board of Trustees of the University of Illinois, priority 2018, dated 2022).

Columns and labels:
[1] = reported value; cited from earlier work
[2] = Fluorescence turn-on response to HNO (Angeli's salt) in vitro
Procedure: (§1) FIG. 2. a) Fluorescence spectra of NitroxylFluor (2 μM) upon addition of AS (100 μM). b) Fluorescence kinetic trace of NitroxylFluor upon addition of 1 mM Angeli's salt, arrow indicates time of addition. c) Response of NitroxylFluor to various reactive oxygen, sulfur, and nitrogen species at concentrations of 100 μM (GSH was tested at 1 mM). Measurements were taken 15 minutes into treatment. d) Competition assays against various thiols. Control indicates no addition of Angeli's salt. Statistics are compared to the control. *, p<0.05; ***, p<0.001; p<0.0001. (n=3).
(§2) FIG. 4. The normalized fluorescence turn-on response of NitroxylBlue-1, -2, and -3 treated with a vehicle control and incubated in PBS at 37° C. are shown in black. The normalized fluorescence turn-on response of NitroxylBlue-1, -2, and -3 treated with 100 μM Angeli's salt are shown in green. All data was taken 10 minutes after treatment. Statistical significance measured with respect to the corresponding control. *, p<0.05; **, p<0.01. (n=3).
Angeli's salt was stored at −20° C. Stocks of Angeli's salt were added as a 10 mM solution in 10 mM KOH (for stability). Hydrogen peroxide was added as a 10 mM stock solution prepared by diluting 30% hydrogen peroxide in deionized water. Superoxide was added as a 1 mM stock solution of potassium superoxide in DMSO (for stability). […]

[3] = Stability in aqueous media: background fluorescence turn-on with vehicle control; type: physicochemical; conditions: PBS
Procedure: as §2
FIG. 5. The normalized fluorescence turn-on response of S-methyl NitroxylBlue treated with vehicle control (black) or Angeli's salt (100 μM) and incubated in PBS at 25° C. All data was taken 15 minutes after treatment.

[4] = Thiol pKa by UV/vis absorbance at 230 nm; type: physicochemical; conditions: Britton-Robinson Universal Buffer
Source text: Assay was completed by measuring the absorbance at 230 nm as described by Tajc et al. (J Am Chem Soc 2004, 126, 10508). Each reading was taken in triplicate and averaged in the respective pH Britton-Robinson Universal Buffer.

[5] = Selectivity against reactive oxygen, sulfur and nitrogen species
Procedure: as §1
Angeli's salt was stored at −20° C. Stocks of Angeli's salt were added as a 10 mM solution in 10 mM KOH (for stability). […]
Hydroxyl radical was prepared by first preparing a 10 mM solution of Mohr's Salt (Fe(NH4)2(SO4)2.6H2O in 0.1 M HCl which was degassed by bubbling nitrogen gas for 20 minutes through the solution. A solution of the probe was made in buffer and degassed and the initial reading was taken. 10 μL of 10 mM Hydrogen Peroxide and Mohr's salt solution giving a final volume of 1 mL (100 μM hydroxyl radical) were added and allowed to incubate at 37° C. for the duration of the selectivity assay with a septum on the cuvette. Iron(II) was prepared via the same procedure as hydroxyl radical only hydrogen peroxide was not added. […]

[6] = Competition assays against thiols for HNO; conditions: 10 μM probe, Angeli's salt 200 μM
Procedure: as §1, with “Statistics are compared to the control. *, p<0.05; ***, p<0.001; p<0.0001.” left out
In these experiments, 10 μM solutions of NitroxylFluor and various thiols such as L-cysteine (100 μM), N-acetyl-L-cysteine (100 μM), and GSH (1 mM) was treated with Angeli's salt (200 μM) (FIG. 2d).

MDA-MB-231 cells [7] = experiment: Confocal imaging of HNO in living cells; type: cell-based, human
Procedure: FIG. 3. Confocal microscopy images acquired by irradiation of MDA-MB-231 cells treated with 0 μM (vehicle control), 250 μM, 500 μM, 1000 μM Angeli's salt for 15 mins at 25° C. with a 488 nm laser. Images taken through a 40× oil immersion objective. Scale bar represents 20 μm. b) Quantification of imaging data. *, p<0.05; ***, p<0.001; p<0.0001.
FIG. 8. Representative time course imaging of MDA-MB-231 cells stained with 4 μM NitroxylFluor for 15 minutes followed by replacement with fresh PBS with no probe. Angeli's salt (200 μM) was added 5 minutes after PBS was replaced. Images were taken through a 40× oil immersion objective at 0, 10, and 20 mins after AS addition at 25° C. via irradiation with a 488 nm laser. Scale bar represents 20 μm.
MDA-MB-231 adenocarcinoma cells were acquired from Prof. David J. Shapiro (Biochemistry, UIUC). Cells were cultured in phenol-red free Dulbecco's modified eagle medium (DMEM, Corning) supplemented with 10% fetal bovine serum (FBS, Sigma Aldrich), and 1% penicillin/streptomycin (Corning). Cells were incubated at 37° C. with 5% CO2. Experiments were performed in 8-well chambered cover glasses (Lab-Tek, Thermo Scientific).
An 8-well chambered cover glass was seeded with 0.4 mL of the above-mentioned cells at a density of 200,000 cells/mL. Cells were imaged at roughly 80% confluency (24 hours after seeding). Media was removed from each well and cells were washed with 200 μL PBS. The PBS was removed from the wells and replaced with 198 μL. 2 μL of 200 μM NitroxylFluor in PBS was added and gently stirred before being allowed to incubate at 37° C. with 5% CO2 for 15 minutes. PBS was then removed from the wells and replaced with 195 μL, 190 μL, or 180 μL PBS. The remaining volume to 200 μL was filled with 10 mM Angeli's salt in 10 mM KOH (or 10 mM KOH in the vehicle control) to give final concentrations of 0.250 mM, 0.500 mM, or 1 mM Angeli's salt. […] 3-5 images of each well were taken and their mean fluorescence (as reported by ImageJ) was averaged to give an average value for each well. […]

MDA-MB-231 cells [8] = experiment: MTT cytotoxicity assay; type: cell-based, human
Procedure: FIG. 9. MTT assay to determine the cytotoxicity of NitroxylFluor at 4 μM over 3, 6, and 24 hours. Detailed protocol available on page 3 of this supporting information document.
A 96-well plate was seeded with 20,000 cells per well (200 μL of 150,000 cells/mL) and incubated at 37° C. with 5% CO2 for 24 h (˜70% confluent). […] After 3, 6, and 24 h the media was removed and replaced with […] 20:1 mixture of FBS-free DMEM and (3-(4,5-dimethylthiazol-2-yl)-2,5-diphenyl-tetrazolium bromide (MTT, 5 mg/mL stock in PBS). The cells were incubated for 4 h under the same conditions and then the medium was removed and replaced with DMSO ([…]). The absorbance of each well was recorded at 555 nm on a microplate reader. Viability was calculated by the absorbance relative to the vehicle control. Results pictured in FIG. 7.

N[C@@H](CCC(=O)N[C@@H](CS)C(=O)NCC(=O)O)C(=O)O [GSH, glutathione]
reported pKa [1]: 9.42

Cc1cc(=O)oc2cc(OC(=O)C(C)(C)S)ccc12 [NB-2]
fluorescence turn-on response with Angeli's salt ([2]; 100 μM Angeli's salt, PBS, 37° C., 10 minutes after treatment): 3.5 fold
background fluorescence turn-on (hydrolysis / alpha-thiolactonization) ([3]; vehicle control, 37° C., after 10 minutes): 1.6 fold

CSC(C)(C)C(=O)Oc1ccc2c(C)cc(=O)oc2c1 [S-Methyl NitroxylBlue-2, reference compound]
hydrolysis after incubation in aqueous media ([3]; 25° C., 15 minutes): No hydrolysis was observed

COC(=O)C(C)(C)S [compound 16, Methyl 2-mercapto-2-methylpropanoate]
pKa [4]: 8.01

CC(C)(S)C(=O)Oc1c(Cl)cc2c(c1Cl)Oc1cc(O)ccc1C21OCc2ccccc21 (stereo not shown) [NitroxylFluor]
fluorescent turn-on response on reaction with HNO ([2]; NitroxylFluor 2 μM, Angeli's salt 100 μM, in a matter of seconds): 16 fold
change in fluorescence with reactive sulfur and nitrogen species ([5]; e.g. H2S, NO, 100 μM, 15-minute incubation at 37° C.): no change in fluorescence
cross-reactivity with oxidants ([5]; oxidants incl. H2O2, 100 μM, 15 minutes): not observed
fluorescent turn-on response in presence of GSH ([6]; GSH 1 mM): 3.9 fold
fluorescence increase in competition with L-cysteine ([6]; L-cysteine 100 μM): 16.2 fold
fluorescence enhancement in competition with N-acetyl-L-cysteine ([6]; N-acetyl-L-cysteine 100 μM): 9.8 fold
fluorescence enhancement at lowest Angeli's salt concentration (MDA-MB-231 cells [7]; 250 μM Angeli's salt, 15 mins): statistically significant enhancement
fluorescence during time-lapse imaging (MDA-MB-231 cells [7]; 500 μM Angeli's salt, images every 1 min for 20 mins): gradual increase in the fluorescence
fluorescence turn-on response in cells (MDA-MB-231 cells [7]; Angeli's salt 250 μM to 1000 μM, after 15 mins): dose-dependent fluorescence turn-on response
cytotoxicity (MTT) versus DMSO control (MDA-MB-231 cells [8]; 4 μM, 3, 6, and 24 hours, n=3): No time point has significant difference from the DMSO control
cytotoxicity (MTT) (MDA-MB-231 cells [8]; 10 μM probe, 3, 6, and 24 h): Cytotoxicity at any time point was not observe
